One may read the melting point as the temperature, or range, at which the solid turns liquid. A word on the Ki: it is the dissociation constant of the complex between target and ligand, obtained from inhibition or displacement.

Structures can show the parent of a compound that is named as a salt.

Among the data in patent US7125903B1 (Aventis Pharmaceuticals Inc., priority 1999, dated 2006) are melting point, inhibition and Ki values, retold here.

System in the first data set: not given
Experiment: not given
Settings: not given
The compound `O[C@@H](COc1cccc(-c2noc3ccsc23)c1)CN1CCN(c2ccccc2)CC1` [Example 49, (2R)-1-(4-phenylpiperazin-1-yl)-3-(3-thieno[2,3-d]isoxazol-3-yl-phenoxy)propan-2-ol] yielded a melting point of 127 to 129 °C.

`O[C@@H](COc1cccc(-c2noc3ccsc23)c1)CN1CCN(c2ccccc2C(F)(F)F)CC1` [Example 52, (2R)-1-(3-thieno[2,3-d]isoxazol-3-yl-phenoxy)-3-[4-(2-trifluoromethylphenyl)-piperazin-1-yl]propan-2-ol] registered a melting point of 77 to 79 °C.

Regarding `O[C@@H](COc1cccc(-c2noc3ccsc23)c1)CN1CCN(Cc2ccc3c(c2)OCO3)CC1` (as salt: hydrochloride) [Example 51, (2R)-1-(4-benzo[1,3]dioxol-5-ylmethyl-piperazin-1-yl)-3-(3-thieno[2,3-d]isoxazol-3-yl-phenoxy)propan-2-ol], the melting point was 225 to 227 °C.

The target of a further data set is T1, human D4 receptor (D4.2 sub-type) (Homo sapiens, UniProt P21917, DEL265-296).
T1 construct: expressed in transfected cells
T1 sequence (P21917 with tags, fused parts or gaps DEL265-296): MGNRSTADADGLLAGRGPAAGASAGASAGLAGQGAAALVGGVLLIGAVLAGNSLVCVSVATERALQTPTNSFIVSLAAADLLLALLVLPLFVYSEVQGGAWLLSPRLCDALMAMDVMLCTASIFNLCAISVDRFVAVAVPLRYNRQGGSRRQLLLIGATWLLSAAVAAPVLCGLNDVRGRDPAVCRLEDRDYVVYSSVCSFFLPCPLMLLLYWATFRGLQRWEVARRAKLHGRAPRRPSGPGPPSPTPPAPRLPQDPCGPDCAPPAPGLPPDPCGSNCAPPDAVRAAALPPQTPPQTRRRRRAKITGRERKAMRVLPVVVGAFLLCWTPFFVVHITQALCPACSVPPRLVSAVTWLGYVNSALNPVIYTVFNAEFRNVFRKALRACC
In words: D4 receptor binding assay (3H-spiperone displacement). To be noted: 1 μM test compound, inhibition of 3H-spiperone binding; read-out: D4 RBA % Inhib. @ 1 μM. As to the method: D4 receptor-binding affinities of the compounds were evaluated according to their ability to reduce binding of ^3H-spiperone as compared to the reference compound clozapine. The potency of the test compound to reduce ^3H-spiperone binding directly correlated to its binding affinity for the receptor.
[…] (human embryonic kidney) cells stably transfected with human D4 receptor (D4.2 sub-type) were grown in NUNC cell factories for 5 days (75% confluency) without a media change and removed with versene (approximately 19 mg of cells per cell factory tray). The cells were then centrifuged in a Sorval centrifuge for 10 min, 5000 rpm (GS3 rotor) and the pellets quickly frozen in liquid nitrogen and stored at −80° C. until used in binding assay. When used in the assay, cells were thawed on ice for 20 min and then 10 mL of incubation buffer (50 mM Tris, 1 mM EDTA, 4 mM MgCl2, 5 mM KCl, 1.5 mM CaCl2, 120 mM NaCl, pH 7.4) was added. The cells were then vortexed to resuspend pellet and homogenized with a Kinematica, CH-6010 Kriens-LU, homogenizer for 15 seconds at setting 7. Concentration of receptor protein was determined using the Pierce BCA assay.
The incubation was started by the addition of 100 μl (50 μg protein) membrane homogenate to a solution of 300 μl incubation buffer and 100 μl (0.25 nM final conc.) ^3H-spiperone (90 Ci/mmol, Amersham, diluted in borosilicate glass vial) in 96-well polypropylene plates (1 mL per well). The plates were vortexed and incubated at room temperature for 90 minutes. The binding reaction was stopped by filtering using a Packard Harvester. The samples were filtered under vacuum over glass fibre filter plates (Whatman GF/B) presoaked for 2 hours in 0.3% polyethylenimine (PEI) in 50 mM Tris buffer (pH 7.4). The filters were then washed 6 times with 7 mL ice cold 50 mM Tris buffer (pH 7.4). The filter plates were dried overnight and 35 μl of Microscint-O (Packard) was added. The plates were sealed and counted in the Packard Top Count (3 minutes per well).
The incubation was started by the addition of 100 μl (50 μg protein) membrane homogenate to a solution of 200 μl incubation buffer, 100 μl ^3H-spiperone (90 Ci/mmol, Amersham, diluted in borosilicate glass vial to 0.25 nM final conc.) and 100 μl (30 μM final conc.) of fresh dopamine (Research Biochemicals Inc., light protected and dissolved in incubation buffer) in 96-well polypropylene plates (1 mL per well). The plates were vortexed and incubated at room temperature for 90 minutes at which time the binding reaction was stopped by filtering. The filters were washed and counted using the same procedure as in the total binding assay described above to give the nonspecific binding value (NSB).
The incubation was started by the addition, in 96-well polypropylene plates (1 mL per well), of 100 μl (50 μg protein) membrane homogenate to a solution of 200 μl incubation buffer, 100 μl (0.25 nM final conc.) ^3H-spiperone (90 Ci/mmol, Amersham, diluted in borosilicate glass vial) and 100 μl of test compound that was prepared from 1 mM stock dissolved in DMSO and stored at −20° C. in polypropylene cryogenic storage vials until dilution in incubation buffer in 96-well polypropylene plates. The plates were vortexed and incubated at room temperature for 90 minutes at which time the binding reaction was stopped by filtering. The filters were washed and counted using the same procedure as in the total binding assay described above to give the displacement binding value (BD).
The test compounds were initially assayed at 1 and 0.1 μM and then at a range of concentrations chosen such that the middle dose would cause about 50% inhibition of ^3H-spiperone binding. Specific binding in the absence of test compound (B0) was the difference of total binding (BT) minus non-specific binding (NSB) and similarly specific binding (in the presence of test compound) (B) was the difference of displacement binding (BD) minus non-specific binding (NSB). […]
As to `Cn1nc(-c2cccc(OC[C@H](O)CN3CCN(c4ncccn4)CC3)c2)c2sccc21` [Example 101], the inhibition at 1 µM stood at 89%.

As to `C[C@](O)(CNCc1cccc2ccccc12)COc1cccc(-c2noc3ccsc23)c1` [Example 57], the inhibition at 1 µM amounted to 96%.

As for `O[C@H](CNCc1ccco1)COc1ccc(-c2noc3ccsc23)cc1` [Example 42], the inhibition at 1 µM stood at 44%.

In the case of `Cn1nc(-c2cccc(OC[C@H](O)CN3CCN(c4ccccc4)CC3)c2)c2sccc21` [Example 100], the inhibition at 1 µM stood at 90%.

As to `C[C@H](NC[C@](C)(O)COc1cccc(-c2noc3ccsc23)c1)c1ccccc1` [Example 56], the inhibition at 1 µM is 93%.

As for `C[C@@H](NC[C@](C)(O)COc1cccc(-c2noc3ccsc23)c1)c1ccccc1` [Example 55], the inhibition at 1 µM was 72%.

As for `O[C@H](CNCc1ccsc1)COc1ccc(-c2noc3ccsc23)cc1` [Example 41], the inhibition at 1 µM stood at 62%.

In the case of `Cn1nc(-c2cccc(OC[C@H](O)CN3CCC(n4c(=O)[nH]c5ccccc54)CC3)c2)c2sccc21` [Example 103], the inhibition at 1 µM worked out at 91%.

With `O[C@@H](COc1cccc(-c2noc3ccsc23)c1)CN1CCCCC1` [Example 98], the inhibition at 1 µM was found to be 85%.

`O[C@@H](COc1cccc(-c2noc3ccsc23)c1)CN1CCC(O)(c2ccc(Cl)cc2)CC1` [Example 90]: the inhibition at 1 µM worked out at 59%.

Turning to `O[C@H](CNCC1CCCCC1)COc1cccc(-c2noc3ccsc23)c1` [Example 92], the inhibition at 1 µM came out at 94%.

With `O[C@@H](COc1cccc(-c2noc3ccsc23)c1)CN1CCN(Cc2ccc3c(c2)OCO3)CC1` [Example 35], the inhibition at 1 µM amounted to 57%.

For the compound `Cn1nc(-c2cccc(OC[C@H](O)CN3CCc4ccccc4C3)c2)c2sccc21` [Example 99], the inhibition at 1 µM was found to be 95%.

With `OC(COc1cccc(-c2noc3ccsc23)c1)CN1CCc2ccccc2C1` (racemic) [Compound 1, (±)-1-(3,4-dihydro-1H-isoquinolin-2-yl)-3-[3-(thieno[2,3-d]isoxazol-3-yl)phenoxy]-2-propanol hydrochloride], the inhibition at 1 µM was 58%.

Take `Cn1nc(-c2cccc(OC[C@H](O)CN3CCC(C(=O)c4ccc(F)cc4)CC3)c2)c2sccc21` [Example 102]: the inhibition at 1 µM came to 97%.

Still in this data set, the particulars now being: 3H-spiperone 0.25 nM, membranes of HEK 298 cells with human D4.2; Cheng-Prusoff from IC50; read-out: D4 RBA Ki.
Consider `O[C@H](CNC1Cc2ccccc2C1)COc1cccc(-c2noc3ccsc23)c1` [Compound 91 (HCl), (2R)-1-(indan-2-ylamino)-3-(3-thieno[2,3-d]isoxazol-3-yl-phenoxy)-propan-2-ol], for which the Ki stood at 17 nM.

Take `CN(Cc1ccccc1)C[C@@H](O)COc1cccc(-c2noc3ccsc23)c1` [Compound 2]: the Ki came out at 106 nM.

Consider `CN(Cc1ccccc1)C[C@](C)(O)COc1cccc(-c2noc3ccsc23)c1` [Example 66], for which the Ki was 90 nM.

`C[C@@](O)(COc1cccc(-c2noc3ccsc23)c1)CN1CCN(c2ccccc2C#N)CC1` [Example 68]: the inhibition constant Ki was determined as 29 nM.

Take `C[C@@](O)(CNCc1cccc2ccccc12)COc1cccc(-c2noc3ccsc23)c1` [Example 21]: the Ki is 55 nM.

With `COc1ccccc1N1CCN(C[C@@H](O)COc2ccc(-c3noc4ccsc34)cc2)CC1` [Example 45], the inhibitory constant (Ki) amounted to 80 nM.

On to `COc1ccccc1N1CCN(C[C@@H](O)COc2cccc(-c3noc4ccsc34)c2)CC1` [Compound 8], for which the Ki turned out to be 1.7 nM.

For the compound `CO[C@H](CNCc1ccccc1)COc1cccc(-c2noc3ccsc23)c1` [Example 39], the Ki is 26 nM.

As to `COc1ccccc1N1CCN(C[C@](C)(O)COc2cccc(-c3noc4ccsc34)c2)CC1` [Example 67], the Ki came out at 19 nM.

On to `O[C@@H](COc1cccc(-c2noc3ccsc23)c1)CN1C2CCC1CC(c1noc3ccccc13)C2` (stereo partly drawn) [Example 75], for which the inhibition constant Ki was 57 nM.

As for `O[C@@H](COc1cccc(-c2noc3ccsc23)c1)CN1CCN(c2ccc(Cl)cc2)CC1` [Compound 7, (2R)-1-[4-(4-chlorophenyl)piperazin-1-yl]-3-(3-thieno[2,3-d]isoxazol-3-yl-phenoxy)propan-2-ol hydrochloride], the Ki amounted to 29.6 nM.

Regarding `O[C@H](CNCc1cccc2ccccc12)COc1cccc(-c2noc3ccsc23)c1` [Example 10], the Ki is 103 nM.

For `O[C@@H](COc1cccc(-c2noc3ccsc23)c1)CN1CCN(c2nsc3ccccc23)CC1` [Example 76], the Ki turned out to be 6 nM.

For `O[C@H](CNCc1cccs1)COc1ccc(-c2noc3ccsc23)cc1` [Example 43], the Ki amounted to 171 nM.

For `C[C@@](O)(CNCc1ccco1)COc1cccc(-c2noc3ccsc23)c1` [Example 17], the Ki came out at 45 nM.

With `C[C@@](O)(CNCc1cccs1)COc1cccc(-c2noc3ccsc23)c1` [Compound 5 (freebase)], the inhibition constant Ki came to 26 nM.

Consider `O[C@@H](COc1cccc(-c2noc3ccsc23)c1)CN1CCN(c2ccccc2C(F)(F)F)CC1` [Example 36], for which the Ki stood at 84 nM.

Turning to `O[C@H](CNC1Cc2ccccc2C1)COc1cccc(-c2noc3ccsc23)c1` [Compound 91 (base), (2R)-1-(indan-2-ylamino)-3-(3-thieno[2,3-d]isoxazol-3-yl-phenoxy)-propan-2-ol], the Ki was 13 nM.

Turning to `O[C@H](CNCc1ccco1)COc1cccc(-c2noc3ccsc23)c1` [Example 25], the Ki is 57 nM.

Take `C[C@@](O)(CNCc1cccs1)COc1cccc(-c2noc3ccsc23)c1` [Compound 5 (maleate), (2R)-2-methyl-1-(3-thieno[2,3-d]isoxazol-3-yl-phenoxy)-3-[thienophen-2-ylmethyl)-amino-propan-2-ol maleate]: the Ki came to 59.2 nM.

With `O[C@H](CNC1CCc2ccccc21)COc1cccc(-c2noc3ccsc23)c1` (stereo partly drawn) [Example 93], the Ki was determined as 16 nM.
